{"source": "patent US6833376B2", "about": "“5-aminoalkyl and 5-aminocarbonyl substituted indoles” (H. Lundbeck A/S, priority 1999, dated 2004)", "key": {"dopamine D2 receptors": {"target": "T1, dopamine D2 receptors (Rattus norvegicus, UniProt P61169)", "T1 construct": "rats (125-250 g) are sacrificed and striatal tissue is dissected and weighed; from tissue; host or cells: rat corpus striatum membranes (male Wistar rats)", "T1 sequence (P61169 whole entry)": "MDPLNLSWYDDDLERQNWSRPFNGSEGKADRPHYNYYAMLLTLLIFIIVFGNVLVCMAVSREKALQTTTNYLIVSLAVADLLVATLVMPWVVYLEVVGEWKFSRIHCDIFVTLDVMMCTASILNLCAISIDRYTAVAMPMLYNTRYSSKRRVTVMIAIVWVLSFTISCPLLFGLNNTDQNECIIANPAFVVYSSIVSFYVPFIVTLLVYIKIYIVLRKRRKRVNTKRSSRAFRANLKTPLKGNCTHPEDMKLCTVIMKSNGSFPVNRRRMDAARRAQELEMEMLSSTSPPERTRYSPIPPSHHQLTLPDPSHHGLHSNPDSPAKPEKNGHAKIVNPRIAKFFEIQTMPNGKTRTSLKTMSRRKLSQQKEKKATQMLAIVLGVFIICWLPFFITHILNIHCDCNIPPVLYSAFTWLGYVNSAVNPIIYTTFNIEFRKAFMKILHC", "experiment": "Inhibition of [3H]-spiperone binding to dopamine D2 receptors in rat corpus striatum in vitro", "procedure": "Inhibition of [^3H]-Spiperone Binding to Dopamnine D2 Receptors in Rat Corpus Striatum in vitro\nBy this method, the inhibition by drugs of the binding of [^3H]-spiperone (=^3H]-spiro-peridol) (0.5 nM) to dopamine D-2 receptors in membranes from rat corpus striatum is determined in vitro. […] PharmacoL. ToxicoL. […] This is a test for dopamnine D2 receptor binding affinity in vitro.\nThe tissue is homogenized (Ultra Turrax, 10 sec.) in 10 mL of ice-cold 50 mM K-phosphate buffer pH 7.4 (at 25° C.). The homogenate is centrifuiged twice at 20,000 g for 10 min at 4° C. with rehomogenization of the pellet in 10 mL ice-old buffer. The final pellet is homogenized in 1300 vol (w/v) ice-cold buffer.\nThe binding experiment is initiated by addition of 100 μl of [^3H]-spiperone (final concentration 0.5 nM) and by placing the tubes in a 37° C. water bath. […] The tubes are rinsed with 5 mL ice-old buffer which are then poured on the filters. Thereafter, the filters are washed with 2×5 mL of buffer. The filters are placed in counting vials and 4 mL of appropriate scintillation fluid (e.g. Picofluor™15) are added. After shaking for 1 h and storage for 2 hrs in the dark, the content of radioactivity is determined by liquid scintillation counting. Specific binding is obtained by subtracting the nonspecific binding in the presence of 10 μM of 6,7-ADTN.\nFor determination of the inhibition of binding, five concentrations of drugs covering 3 orders of magnitude are used.\n[^3H]-Spiperone=[phenyl-4-^3H]-spiperone from Amersham International plc. England, specific activity 15-25 Ci/mmol."}, "[1]": {"target": "T2, serotonin S2 (5HT2A) receptors (Rattus norvegicus, UniProt P14842)", "T2 construct": "rats (125-250 g) are sacrificed and cortical tissue is dissected and weighed; from tissue; host or cells: rat cortex membranes (male Wistar rats)", "T2 sequence (P14842 whole entry)": "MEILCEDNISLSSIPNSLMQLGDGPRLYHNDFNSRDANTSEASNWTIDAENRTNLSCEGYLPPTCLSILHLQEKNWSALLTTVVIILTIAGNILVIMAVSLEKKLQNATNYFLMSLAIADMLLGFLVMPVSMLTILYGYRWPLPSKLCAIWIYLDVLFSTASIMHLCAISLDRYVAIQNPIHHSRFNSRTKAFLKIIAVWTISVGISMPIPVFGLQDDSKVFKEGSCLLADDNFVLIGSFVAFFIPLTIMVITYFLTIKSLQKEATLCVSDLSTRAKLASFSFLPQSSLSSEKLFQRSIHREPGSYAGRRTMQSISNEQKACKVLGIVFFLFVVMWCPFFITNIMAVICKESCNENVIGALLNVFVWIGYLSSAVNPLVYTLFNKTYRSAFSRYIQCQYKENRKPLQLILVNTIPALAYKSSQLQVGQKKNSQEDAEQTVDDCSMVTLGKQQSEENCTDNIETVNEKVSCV", "experiment": "Inhibition of [3H]-ketanserin binding to serotonin S2 (5HT2A) receptors in rat cortex in vitro", "procedure": "INHIBITION OF [^3H]-KETANSERIN BINDING TO SEROTONIN S2 (5HT2A) RECEPTORS IN RAT CORTEX IN VITRO\nBy this method, the inhibition by drugs of the binding of [^3H]-ketanserin (0.5 nM) to serotonin S2 (5-HT2) receptors in membranes from rat cortex is determined in vitro.\nThe tissue is homogenized (Ultra Turrax, 10 sec) in 10 mL of ice cold 50 mM tris buffer pH 7.7 (at 25° C.). The centrifige glassware used in this step has been rinsed by sonication for 10 min in ethanol. The homogenate is centrifuged twice at 20,000 g for 10 min. at 4° C., with rehomogenization of the pellet in 10 mnL ice-cold buffer. The final pellet is homogenized in 250 vol (w/v) ice-cold buffer.\nIncubation tubes (96 deep well titer plate) kept on ice receive 50 mL of [^3H]-ketanserin (final concentration 0.5 nM).\nThe binding experiment is initiated by addition of […] of tissue suspension (final tissue content corresponds to 4 mg original tissue) and by placing the 96 deep well titer plate in a 37° C. water bath. All tests are made in triplicates.\nAfter incubation for 30 min, the samples are filtered on a Brandel harvester under vacuum (18 inch Hg) through printed filter mat B (13 mm). Titerplate and filter are washed 2×10 sec. flow 50L/h with ice cold buffer.\nThe printed filter mat with purred labelled tissue are dried for 1 h at 110° C. and hereafter placed in a sample bag with Meltilex B/HS 14.5 g and melted together on the T-tray heat seal.\nSpecific binding is obtained by subtracting the nonspecific binding in the presence of 1 mM mianserin.\n(§1) For determination of the inhibition of binding, five concentrations of drugs covering 3 decades are used.\n[^3H]-ketanserin=(ethylene-^3H)-ketanserin hydrochloride from New England Nuclear, specific activity […]."}, "α1-adrenoceptors": {"target": "α1-adrenoceptors", "experiment": "Inhibition of [3H]-prazosin binding to α1-adrenoceptors in rat brain in vitro", "conditions": "[3H]-prazosin 0.25 nM, membranes from rat brain", "procedure": "Method and results in Hyttel & Larsen, J. Neurochem.\nThe tissue is homogenized (Ultra Turrax, 10 se) in 10 mL of ice cold 50 mM tris buffer pH 7.7 (at 25° C.). The homogenate is centiflged twice at 20,000 g for 10 min at 4° C. with rehomogenization of the pellet in 10 ml ice-cold buffer. The final pellet is homogenized in 250 vol (w/v) ice-cold buffer.\nThe binding experiment is initiated by addition of […] of tissue suspension (final tissue content corresponds to 3 mg original tissue) and by placing the 96 deep well titer plate in a 25° C. water bath. AU tests are made in triplicates. After incubation for 20 min, the samples are filtered on a Brandel harvester under vacuum (18 inch. Hg) through printed filtermat B (13 mm). Titerplates and filter are washed 1×10 sec flow 50 L/h with ice cold buffer.\nThe filter mat is dried for 1 h at 110° C. and then placed in a sample bag with Meltilex B/HS (14.5 g) and melted together on the T-Tray heat sealer.\nas §1"}, "[2]": {"conditions": "[3H]-spiperone 0.5 nM, membranes from rat corpus striatum, read-out: IC50 values D2"}, "[3]": {"conditions": "[3H]-ketanserin 0.5 nM, membranes from rat cortex, read-out: IC50 values 5-HT2A"}}, "note": "Where two headings read alike, the source gives them in different places."}
{"smiles": "CN(C)C(=O)c1ccc2c(c1)c(C1CCN(CCN3CCNC3=O)CC1)cn2-c1ccc(F)cc1", "note": "[Compound 7b, N,N-Dimethyl-1-(4-fluorophenyl)-3-[1-[2-(2-imidazolidinon-1-yl)ethyl]4-piperidinyl]-1H-indole-5-carboxamide]", "values": [{"measurement": "melting point", "value": "172 to 176", "unit": "°C"}, {"measurement": "IC50", "setting": "dopamine D2 receptors; [2]", "value": 170, "unit": "nM"}, {"measurement": "IC50", "setting": "[1]; [3]", "value": 18, "unit": "nM"}, {"measurement": "IC50", "setting": "α1-adrenoceptors", "value": 5.4, "unit": "nM"}]}
{"smiles": "CN(C)Cc1ccc2c(c1)c(C1CCN(CCN3CCNC3=O)CC1)cn2-c1ccc(F)cc1", "note": "[Compound 7c, 1-[2-[4-[5-Dimethylaminomethyl-1-(4-fluorophenyl)-1H-indol-3-yl]-1-piperidinyl]ethyl]-2-imidazolidinon]", "values": [{"measurement": "melting point", "value": "166 to 174", "unit": "°C"}, {"measurement": "IC50", "setting": "dopamine D2 receptors; [2]", "value": 180, "unit": "nM"}, {"measurement": "IC50", "setting": "[1]; [3]", "value": 50, "unit": "nM"}, {"measurement": "IC50", "setting": "α1-adrenoceptors", "value": 1.3, "unit": "nM"}]}
{"smiles": "CN(C)Cc1ccc2c(c1)c(C1=CCN(CCN3CCNC3=O)CC1)cn2-c1ccc(F)cc1", "note": "[Compound 7d, 1-[2-[4-[5-Dimethylaminomethyl-1-(4-fluorophenyl)-1H-indol-3-yl]-1,2,3,6-tetrahydropyridin-1-yl]ethyl]-2-imidazolidinon]", "values": [{"measurement": "melting point", "value": "146 to 148", "unit": "°C"}, {"measurement": "IC50", "setting": "dopamine D2 receptors", "value": 35, "unit": "nM"}, {"measurement": "IC50", "setting": "[1]", "value": 80, "unit": "nM"}, {"measurement": "IC50", "setting": "α1-adrenoceptors", "value": 0.53, "unit": "nM"}]}
{"smiles": "COc1cc2nc(N3CCN(C(=O)c4ccco4)CC3)nc(N)c2cc1OC", "note": "[Prazosin, reference compound]", "values": [{"measurement": "IC50", "setting": "α1-adrenoceptors", "value": 0.36, "unit": "nM"}]}
{"smiles": "O=C1NCCN1CCN1CCC(c2cn(-c3ccc(F)cc3)c3ccc(Cl)cc23)CC1", "note": "[Sertindole, sertindole, reference compound]", "values": [{"measurement": "IC50", "setting": "α1-adrenoceptors", "value": 3.4, "unit": "nM"}]}
